Legend:
Male Sprague-Dawley rats = assay: Effect of SR 141716 A on the intake of a sucrose solution in rats; type: in vivo, rat; settings: for Consumption of sucrose solution in g, 1 hour / Consumption of sucrose solution in g, 2 hours / Consumption of sucrose solution in g, 3 hours / Consumption of sucrose solution in g, 4 hours: 5% sucrose solution; for Consumption of sucrose solution in g, 1 hour: T0+1 hour; for Consumption of sucrose solution in g, 2 hours: T0+2 hours; for Consumption of sucrose solution in g, 3 hours: T0+3 hours; for Consumption of sucrose solution in g, 4 hours: T0+4 hours
Experimental: TEST No. 1: Effect of SR 141716 A on the intake of a sucrose solution in rats
The experiment is performed according to W. C. Lynch et al., Physiol. Behav., 1993, 54, 877-880.
Male Sprague-Dawley rats weighing 190 to 210 g are under a normal light cycle (from 7 am to 7 pm) and receive water and food ad libitum.
For 6 days, between 11 am and 3 pm, the food and the water bottles are withdrawn and the rats are given a 5% sucrose solution to drink.
Rats drinking less than 3 g of sucrose solution are eliminated.
On the seventh day the test is carried out according to the following procedure:
9 am: withdrawal of food,
10 am: oral administration of SR 141716 A,
11 am=T0: introduction of bottles containing a weighed sucrose solution , T0+1 hour, T0+2 hours, T0+3 hours, T0+4 hours: measurement of the sucrose consumption by weighing of the bottles.

Male C 57 BL 6 mice = assay: Effect of SR 141716 A on the consumption of an alcohol solution in mice; type: in vivo, mouse; settings: 6 hours; for Amount of alcohol consumed in g on D4: 10% alcohol solution
Experimental: TEST No. 2: Effect of SR 141716 A on the consumption of an alcohol solution in mice
Male C 57 BL 6 mice (Iffa-Credo) are isolated on the day of their arrival in an animal housing under a reverse cycle (night from 10 am to 10 pm) with 2 bottles filled with water. After 1 week, one of the bottles of water is replaced with a bottle filled with a 10% alcohol solution for 6 hours of the test. Each day, 30 minutes before the bottle of alcohol is introduced, the mice are treated subcutaneously with SR 141716 A. The amounts of alcohol and water consumed are measured after 6 hours. The test is repeated for 4 days.

With Cc1c(C(=O)NN2CCCCC2)nn(-c2ccc(Cl)cc2Cl)c1-c1ccc(Cl)cc1 [SR 141716 A, N-piperidino-5-(4-chlorophenyl)-1-(2,4-dichlorophenyl)-4-methylpyrazole-3-carboxamide] the “Consumption of sucrose solution in g, 1 hour” value (“Consumption … 1 hour” below) (Male Sprague-Dawley rats; 0.3 mg/kg po) was 5.18 g, the “Consumption of sucrose solution in g, 2 hours” value (“Consumption … 2 hours” below) (Male Sprague-Dawley rats; 0.3 mg/kg po) was 9.18 g and the “Consumption of sucrose solution in g, 3 hours” value (“Consumption … 3 hours” for short) (Male Sprague-Dawley rats; 0.3 mg/kg po) was 12.49 g. For the same compound, the “Consumption of sucrose solution in g, 4 hours” value (from here on “Consumption … 4 hours”) (Male Sprague-Dawley rats; 0.3 mg/kg po) was 16.10 g, the “Consumption … 1 hour” value (Male Sprague-Dawley rats; 1 mg/kg po) was 3.27 ± g and the “Consumption … 2 hours” value (Male Sprague-Dawley rats; 1 mg/kg po) was 3.61 ± g. For the same compound, the “Consumption … 3 hours” value (Male Sprague-Dawley rats; 1 mg/kg po) was 5.65 ± g, the “Consumption … 4 hours” value (Male Sprague-Dawley rats; 1 mg/kg po) was 7.43 ± g and the “Consumption … 1 hour” value (Male Sprague-Dawley rats; 3 mg/kg po) was 2.95 ± g. The “Consumption … 2 hours” value (Male Sprague-Dawley rats; 3 mg/kg po) was 5.41 ± g, the “Consumption … 3 hours” value (Male Sprague-Dawley rats; 3 mg/kg po) was 6.96 ± g and the “Consumption … 4 hours” value (Male Sprague-Dawley rats; 3 mg/kg po) was 8.58 ± g. For the same compound, the “Dose at or above which consumption of aqueous sugar solution is very considerably reduced” value (Male Sprague-Dawley rats; oral administration) was no less than 0.3 mg/kg, the “Amount of alcohol consumed in g on D4” value (Male C 57 BL 6 mice; 0.1 mg/kg sc) was 1.4 ± 0.2 g and the “Amount of water consumed” value (Male C 57 BL 6 mice; 0.1 mg/kg sc) was 1.1 ± 0.3 g. For the same compound, the “Amount of alcohol consumed in g on D4” value (Male C 57 BL 6 mice; 0.3 mg/kg sc) was 1.3 ± 0.2 g, the “Amount of water consumed” value (Male C 57 BL 6 mice; 0.3 mg/kg sc) was 1.1 ± 0.3 g and the “Amount of alcohol consumed in g on D4” value (Male C 57 BL 6 mice; 1 mg/kg sc) was 1.1 ± 0.2 g. The “Amount of water consumed” value (Male C 57 BL 6 mice; 1 mg/kg sc) was 1.3 ± 0.1 g, the “Amount of alcohol consumed in g on D4” value (Male C 57 BL 6 mice; 3 mg/kg sc, 3 mg/kg) was 1.0 ± 0.2 g and the “Amount of water consumed” value (Male C 57 BL 6 mice; 3 mg/kg sc, 3 mg/kg) was 1.6 ± 0.3 g.

— patent publication US6344474B1, “Use of central cannabinoid receptor antagonists for regulating appetence” (Sanofi-Synthelabo, priority 1997, dated 2002)
